Source: article PMC9916658, “Design and Synthesis of New Quinazolin-4-one Derivatives with Negative mGlu7 Receptor Modulation Activity and Antipsychotic-Like Properties” (International Journal of Molecular Sciences, 2023)

Experiments:
[1] = Pharmacokinetics of ALX-171 after i.v. and p.o. administration; type: in vivo; conditions: mouse, female BALB/c mice
[2] = molecular target: T1, human mGlu8 receptor (Homo sapiens, UniProt O00222); assay: mGlu8 receptor selectivity, cAMP accumulation screening at 10 µM; type: cell-based; conditions: group III mGlu receptors
T1 construct: expressed in transfected cells; host or cells: T-REx 293 (tetracycline-inducible)
T1 sequence (O00222 34-908): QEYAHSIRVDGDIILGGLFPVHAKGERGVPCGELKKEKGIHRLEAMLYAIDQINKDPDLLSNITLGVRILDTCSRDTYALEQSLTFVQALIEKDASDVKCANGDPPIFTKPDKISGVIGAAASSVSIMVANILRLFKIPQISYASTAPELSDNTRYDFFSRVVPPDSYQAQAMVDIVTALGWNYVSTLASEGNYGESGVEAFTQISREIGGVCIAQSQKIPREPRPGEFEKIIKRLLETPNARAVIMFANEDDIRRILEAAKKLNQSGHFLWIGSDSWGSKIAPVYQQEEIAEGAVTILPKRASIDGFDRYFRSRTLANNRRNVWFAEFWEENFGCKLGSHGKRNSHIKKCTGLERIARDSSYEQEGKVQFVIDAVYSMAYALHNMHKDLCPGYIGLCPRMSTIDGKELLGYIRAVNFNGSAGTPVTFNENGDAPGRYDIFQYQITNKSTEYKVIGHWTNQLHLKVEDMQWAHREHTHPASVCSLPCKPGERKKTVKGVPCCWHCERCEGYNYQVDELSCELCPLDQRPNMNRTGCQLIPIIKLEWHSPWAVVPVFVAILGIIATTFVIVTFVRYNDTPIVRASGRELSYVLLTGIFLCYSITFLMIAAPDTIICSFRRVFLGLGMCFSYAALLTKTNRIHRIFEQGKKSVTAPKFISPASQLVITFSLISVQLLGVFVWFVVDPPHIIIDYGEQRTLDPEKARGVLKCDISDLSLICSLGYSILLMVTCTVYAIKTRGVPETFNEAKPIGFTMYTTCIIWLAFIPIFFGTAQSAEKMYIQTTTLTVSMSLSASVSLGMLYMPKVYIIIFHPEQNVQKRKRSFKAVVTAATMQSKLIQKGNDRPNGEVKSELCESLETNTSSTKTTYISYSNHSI
Protocol: The cell lines with the tetracycline-inducible expression of human metabotropic receptors 4, 7, and 8 were described in detail by Chruścicka et al. (mGlu4 receptor NM_000841, mGlu7 receptor NM_000844.2, and mGlu8 receptor NM_000845). Cells were grown under standard cell culture conditions (37 °C, 5% CO2) in DMEM supplemented with 10% tetracycline-free FBS. The expression was induced through the addition of tetracycline to the culture medium at 0.75 μg/mL.
The determination of the intracellular cAMP through homogeneous time-resolved fluorescence (HTRF) was described in detail previously. […] The intracellular concentration of cyclic AMP was measured by means of a cAMP Gi HTRF kit from Cisbio, according to the manufacturer’s instructions. After 1 h of incubation at room temperature, the fluorescence at 620 nm and 665 nm was read (Tecan Infinite M1000). The results were calculated as the 665 nm/620 nm ratio multiplied by 10^4. […] Data were analyzed using GraphPad Prism version 5.04 for Windows (GraphPad Software, San Diego, USA).
Firstly, all compounds were screened at 10 μM using three cell lines expressing the mGlu4/7/8 receptor to evaluate selectivity. […] For compounds that passed the screening procedure, the dose–response curve in the presence of LSP4-2022 in 5 μM was evaluated compared to reference NAM ADX71743. […]

[3] = tested on: MK-801-induced hyperactivity in mice; assay: MK-801-induced hyperactivity; type: in vivo; conditions: mice, 2.5, 5, or 10 mg/kg
Protocol: The locomotor activity was recorded individually for each animal in locomotor activity cages with modifications. […] After 30 min, all of the mice were injected i.p. with MK-801 at 0.35 mg/kg and once again placed in the same cage. From then on, the ambulation scores were counted for 60 min. All of the groups were compared with the MK-801 control group. The experiment also included a control group treated with NaCl only.

[4] = tested on: naïve mice; assay: Spontaneous locomotor activity of naïve mice; type: in vivo; conditions: compound alone
[5] = tested on: MK-801-induced disruptions of social interactions in mice; assay: Social interaction test (MK-801-induced deficits); type: in vivo; conditions: all tested doses
Protocol: The method was adapted from de Moura Linck et al., 2008 [57], and Woźniak et al., 2016 [58]. After the 2-day habituation trial (10 min/day), a pair of mice was placed in the open field for 5 min. The social interactions between the two mice were determined based on the total time spent participating in social behavior, such as genital investigation, sniffing, chasing, and fighting each other. The total number of social episodes was also measured. The test was video-recorded and viewed by a trained observer.

[6] = tested on: prepulse inhibition in rats; assay: Prepulse inhibition test; type: in vivo

Work on `COc1cccc(-c2ccc3nc(-c4ccccc4Cl)n(C)c(=O)c3c2)c1OC` [ALX-171, 2-(2-chlorophenyl)-6-(2,3-dimethoxyphenyl)-3-methylquinazolin-4(3H)-one] yielded an AUC(0-t) ([1]; iv, brain, i.v. 3 mg/kg) of 3.27 µM·h, a Cmax ([1]; iv, brain, i.v. 3 mg/kg) of 1850 nM and a Tmax ([1]; iv, brain, i.v. 3 mg/kg) of 0.25 h. It also gave a half-life ([1]; iv, brain, i.v. 3 mg/kg) of 3.41 h, an AUC(0-t) ([1]; iv, plasma, i.v. 3 mg/kg) of 2.91 µM·h and a Cmax ([1]; iv, plasma, i.v. 3 mg/kg) of 1590 nM. The Tmax ([1]; iv, plasma, i.v. 3 mg/kg) was 0.25 h, the Vd ([1]; iv, plasma, i.v. 3 mg/kg) was 7.63 L/kg and the half-life ([1]; iv, plasma, i.v. 3 mg/kg) was 2.26 h. It also gave a bioavailability ([1]; plasma, oral, p.o. 5 mg/kg vs i.v. 3 mg/kg, read-out: F (peroral bioavailability)) of 58%, an AUC(0-t) ([1]; po, brain, p.o. 5 mg/kg) of 2.97 µM·h and a Cmax ([1]; po, brain, p.o. 5 mg/kg) of 1360 nM. For the same compound, the Tmax ([1]; po, brain, p.o. 5 mg/kg) was 0.5 h, the half-life ([1]; po, brain, p.o. 5 mg/kg) was 2.95 h and the AUC(0-t) ([1]; po, plasma, p.o. 5 mg/kg) was 2.63 µM·h. For the same compound, the Cmax ([1]; po, plasma, p.o. 5 mg/kg) was 1090 nM, the Tmax ([1]; po, plasma, p.o. 5 mg/kg) was 0.5 h and the half-life ([1]; po, plasma, p.o. 5 mg/kg) was 3.08 h. The “selectivity over mGlu8” value [2] was “selective”, the “MK-801-induced increase in locomotor activity” value [3] was “not able to reverse” and the spontaneous locomotor activity [4] was “no effect”. The “MK-801-induced disruption in the interaction time” value [5] was “reversed”, the “MK-801-induced disruption in the number of episodes” value [5] was “reversed” and the “MK-801-induced decrease of prepulse inhibition” value ([6]; any of the investigated doses) was “no effect”. For the same compound, the “disturbance of the PPI response, compound alone” value ([6]; highest investigated dose 10 mg/kg) was ~ 50%.
